Source: patent US20060183786A1, “Injectable long-acting analgesic composition comprising an ester derivative of ketorolac” (CHI MEI FOUNDATION HOSPITAL, priority 2005, published 2006)
In brackets after ≈: the same amount, converted by molar mass.

Columns and labels:
[1] = test system: rats intraplantarly injected with carrageenin; experiment: Paw pressure test (pain threshold of paw), analgesic effect after intramuscular injection; type: in vivo, Sprague-Dawley rats
Procedure: Louis, Mo., USA) was injected subcutaneously into the plantar space of the right hind paw of all rats. Intraplantar injections were made with a Hamilton syringe and a 30-gauge hypodermic needle. The needle was inserted into the pad region of the glabrous skin and moved 6-8 mm proximal toward the tarsal region. • (5) Measurements of the pain threshold values of rat paw: Paw pressure test was conducted using the TSE Analgesia System (TSE Technical & Scientific Equipment GmbH; Bad Homburg, Germany). The TSE Analgesia System is designed to perform rapid and accurate screening of analgesic drug candidates on the normal and inflamed paw of small laboratory animals, according to the Randall-Selitto method. The data can be measured and recorded by a control unit and a computer system connected thereto. The animal's paw is placed on a plinth and is applied with an increasing pressure generated from the tip of a sensor. The applied pressure is measured. The sensor is made from smooth plastic to prevent the paw from being injured when the animal withdraws its paw suddenly. To start the test, a foot switch is pressed and the sensor is lowered rapidly until it contacts the rat's paw. Thereafter, the sensor is lowered in small steps until the pain threshold is reached, at which time the tested animal (rat) starts to move vigorously and tries to withdraw its paw. The foot switch is then released and the sensor is raised. The value of the applied pressure measured at the pain threshold is shown on the display and simultaneously delivered to the computer system, which is installed with a software system capable of transferring the measured data into Excel format, which can be used as a basis for further evaluation, e.g., statistics. The TSE Analgesia system is suitable for rats, mice and other small laboratory animals. […] To prevent tissue damage, a cutoff pressure of 350 gm was set. […] In order to keep a similar condition of carrageenin-induced paw edema and pain at each testing day, this 4-day study was accomplished by conducting four one-day studies consecutively (i.e. from day 1 to day 4). All rats received only one intramuscular injection of either ketorolac propyl ester ([…], […]) or the vehicle ([…]) at the start of study (day 1) and then (1 minute later) received intraplantar injection of carrageenin at either day 1, 2, 3, or day 4. Each rat received only one injection of carrageenin. […] A three-way analysis of variance with one-way repeated method was used to compare the differences between groups. The Bonferroni test was used as a post-hoc test to compare the differences between the medication groups and the vehicle group at each time point. […] (“*” means P<0.05 whereas “+” means P<0.01 when compared with the vehicle group). The three-way analysis of variance with one-way repeated method is a powerful statistical method which can be used to evaluate the differences among groups. […] A 4-day study was carried out. […] All rats received only one intramuscular injection of a tested analgesic drug (ketorolac or a ketorolac ester derivative, […]) or the vehicle ([…]) at the start of study (day 1) and then received intraplantar injection of carrageenin at either day 1, 2, 3, or day 4. Each rat received only one injection of carrageenin.

[2] = test system: rats intraplantarly injected with carrageenin; experiment: Paw swelling (paw thickness), anti-inflammatory effect after intramuscular injection; type: in vivo, Sprague-Dawley rats
Procedure: Louis, Mo., USA) was injected subcutaneously into the plantar space of the right hind paw of all rats. Intraplantar injections were made with a Hamilton syringe and a 30-gauge hypodermic needle. The needle was inserted into the pad region of the glabrous skin and moved 6-8 mm proximal toward the tarsal region. • (5) Measurements of the pain threshold values of rat paw: Paw pressure test was conducted using the TSE Analgesia System (TSE Technical & Scientific Equipment GmbH; Bad Homburg, Germany). […] Paw thickness was measured immediately prior to and following carrageenin injection. […] A two-way analysis of variance with one-way repeated method was used to compare the differences between groups. The Bonferroni test was used as a post-hoc test to compare the differences between the medication groups and the vehicle group at each time point. […] (“*” means P<0.05 whereas “+” means P<0.01 when compared with the vehicle group). The two-way analysis of variance with one-way repeated method is a powerful statistical method which can be used to evaluate the differences among groups. […] In order to keep a similar condition of carrageenin-induced paw edema and pain at each testing day, this 4-day study was accomplished by conducting four one-day studies consecutively (i.e. from day 1 to day 4). All rats received only one intramuscular injection of either ketorolac propyl ester (80, 160, or 240 μmole/Kg, prepared in sesame oil) or the vehicle (sesame oil only) at the start of study (day 1) and then (1 minute later) received intraplantar injection of carrageenin at either day 1, 2, 3, or day 4. Each rat received only one injection of carrageenin. […] A three-way analysis of variance with one-way repeated method was used to compare the differences between groups. The Bonferroni test was used as a post-hoc test to compare the differences between the medication groups and the vehicle group at each time point. […] (“*” means P<0.05 whereas “+” means P<0.01 when compared with the vehicle group). The three-way analysis of variance with one-way repeated method is a powerful statistical method which can be used to evaluate the differences among groups. […] A 4-day study was carried out. […] All rats received only one intramuscular injection of a tested analgesic drug (ketorolac or a ketorolac ester derivative, prepared in sesame oil) or the vehicle (sesame oil only) at the start of study (day 1) and then received intraplantar injection of carrageenin at either day 1, 2, 3, or day 4. Each rat received only one injection of carrageenin. […] All rats received only one intramuscular injection of either a tested analgesic drug (ketorolac propyl ester prepared in four different oils) or the vehicle (4 different oils) at the start of study (day 1) and then received intraplantar injection of carrageenin at either day 1, 2, 3, or day 4. Each rat received only one injection of carrageenin.

[3] = human serum, compared with KEE; cited from earlier work
[4] = human cadaver skin, compared with KEE; cited from earlier work
[5] = compared with commercially available ketorolac (trometamole salt); cited from earlier work
[6] = 30 mg (=80 μmole) given to an adult, clinical practice; cited from earlier work
[7] = test system: rats intraplantarly injected with carrageenin; experiment: Paw swelling (paw thickness), anti-inflammatory effect after intramuscular injection; type: in vivo, Sprague-Dawley rats; conditions: for Anti-inflammatory duration (h): in water
[8] = cited from earlier work
Solubility in sesame oil = type: physicochemical
[9] = cited from earlier work; remark: listed apart in the source
[10] = parenteral, n>20,000; cited from earlier work
[11] = cited from earlier work; remark: listed apart in the source
[12] = 240 μmole/Kg intramuscular, in oil A (sesame oil)
[13] = intramuscular injection of 24-240 μmole, in 0.9% saline
[14] = 80 μmole/Kg intramuscular, in oil A (sesame oil)
[15] = 160 μmole/Kg intramuscular, in oil A (sesame oil)
[16] = 240 μmole/Kg intramuscular, in oil B (soybean oil)
[17] = 240 μmole/Kg intramuscular, in oil C (peanut oil)
[18] = 240 μmole/Kg intramuscular, in oil D (castor oil)
[19] = 240 μmole/Kg intramuscular, in oil E (cotton seed oil)
[20] = 240 μmole/Kg intramuscular, oil suspension in sesame oil

CCCCCCCCCCCCCCCCOC(=O)C1CCn2c(C(=O)c3ccccc3)ccc21 (centres unmarked) [Ketorolac cetyl ester]
Analgesic duration [1, 12]: 74 h
Anti-inflammatory duration [2, 12]: 78 h

CN(C)C(=O)COC(=O)C1CCn2c(C(=O)c3ccccc3)ccc21 (centres unmarked) [KDAE, ketorolac [(N,N-dimethylamino)carbonyl]methyl ester]
enzymatic hydrolysis to liberate the parent drug [3]: faster enzymatic hydrolysis
skin flux [4]: relatively higher skin flux

O=C(O)C(=O)O.O=C(c1ccccc1)c1ccc2n1CCC2C(=O)OCCN1CCCC1 (centres unmarked) [oxalate salt of 2-(1-pyrrolidinyl)ethylester of ketorolac]
undesired side effects (gastrointestinal irritation and ulceration) [5]: less undesired side effects

CCCCCCCCCCOC(=O)C1CCn2c(C(=O)c3ccccc3)ccc21 (centres unmarked) [Ketorolac decyl ester]
Analgesic duration [1, 12]: 76 h
Anti-inflammatory duration [2, 12]: 76 h

NC(CO)(CO)CO.O=C(c1ccccc1)c1ccc2n1CCC2C(=O)O (centres unmarked) [Ketorolac tromethamine, ketorolac tromethamine, reference compound]
duration of action [6]: 6 to 8 h
Analgesic duration ([1]; 24 μmole/Kg intramuscular, in water): 6 h
Analgesic duration ([1]; 80 μmole/Kg intramuscular, in water): 6 h
Analgesic duration ([1]; 240 μmole/Kg intramuscular, in water): 8 h
duration of action ([1]; intramuscular injection 30 mg/kg in rats): 6 to 8 h
duration of significant analgesic effects (pain threshold of paw) [1, 13]: 6 to 8 h
Anti-inflammatory duration (h) ([7]; 24 μmole/Kg intramuscular): 8, 8, 8 h
Anti-inflammatory duration (h) ([7]; 80 μmole/Kg intramuscular): 8, 8, 8 h
Anti-inflammatory duration (h) ([7]; 240 μmole/Kg intramuscular): 8, 8, 8 h
duration of significant anti-inflammatory effects (paw swelling) [7, 13]: 8 h

CC(C)(C)OC(=O)C1CCn2c(C(=O)c3ccccc3)ccc21 (centres unmarked) [Ketorolac tert-butyl ester]
Analgesic duration [1, 12]: 56 h
Anti-inflammatory duration [2, 12]: 56 h

CCN(CC)CCOC(=O)C1CCn2c(C(=O)c3ccccc3)ccc21.O=C(O)/C=C\C(=O)O (centres unmarked) [maleate salt of 2-(diethylamino)ethyl ester of ketorolac]
undesired side effects (gastrointestinal irritation and ulceration) [5]: less undesired side effects

CCCOC(=O)C1CCn2c(C(=O)c3ccccc3)ccc21 (centres unmarked) [Ketorolac propyl ester]
Analgesic duration [1, 14]: 6 h
Analgesic duration [1, 15]: 28 h
Analgesic duration [1, 12]: 54 h
Analgesic duration (h) [1, 16]: 56, 56 h
Analgesic duration (h) [1, 17]: 56, 56 h
Analgesic duration [1, 18]: 56 h
Analgesic duration [1, 19]: 78 h
Anti-inflammatory duration [2, 14]: 6 h
Anti-inflammatory duration [2, 15]: 30 h
Anti-inflammatory duration [2, 12]: 54 h
Anti-inflammatory duration [2, 16]: 54 h
Anti-inflammatory duration [2, 17]: 56 h
Anti-inflammatory duration [2, 18]: 56 h
Anti-inflammatory duration [2, 19]: 78 h
permeation rate of ketorolac in rat skin (maximum) [8]: 46.61 nmole/cm^2/h

CCCCCCCOC(=O)C1CCn2c(C(=O)c3ccccc3)ccc21 (centres unmarked) [Ketorolac heptyl ester]
Analgesic duration [1, 12]: 74 h
Anti-inflammatory duration [2, 12]: 74 h

O=C(c1ccccc1)c1ccc2n1CCC2C(=O)O (racemic) [Ketorolac, (±)-5-benzoyl-2,3-dihydro-1H-pyrrolizine-1-carboxylic acid]
solubility in sesame oil (Solubility in sesame oil): 10.6 mM (≈ 2710 µg/mL)
solubility (Solubility in sesame oil; oil or lipid): 2700 µg/mL (≈ 10.6 mM)
mean terminal elimination half-life (T1/2β) ([9]; healthy volunteers): about 5 hours
apparent volume of distribution (Vd) ([9]; in vivo): < 0.3 L/kg
analgesic effect [1, 20]: failed to provide significant analgesic and antiinflamatory effects
odds ratio (OR), risk of gastrointestinal bleeding compared to opioids [10]: 1.30
odds ratio (OR), risk of operative site bleeding compared to opioids [10]: 1.02
anti-inflammatory effect [2, 20]: failed to provide significant analgesic and antiinflamatory effects
bound to plasma proteins [11]: > 99%

O=C(c1ccccc1)c1ccc2n1CCC2C(=O)OCc1ccccc1 (centres unmarked) [Ketorolac benzyl ester]
Analgesic duration [1, 12]: 56 h
Anti-inflammatory duration [2, 12]: 56 h

CCCCCOC(=O)C1CCn2c(C(=O)c3ccccc3)ccc21 (centres unmarked) [Ketorolac pentyl ester]
Analgesic duration [1, 12]: 56 h
Anti-inflammatory duration [2, 12]: 56 h
